The results in this text go back to patent publication US10689354B2, “Aminoazole derivative” (Teijin Pharma Limited, priority 2015, dated 2020).

Assay [1] deals with T1, androgen receptor (AR-LBD) (Rattus norvegicus, UniProt P15207).
T1 construct: 5 μL of 2×AR-LBD/Fluoromone AL Red Complex contained in the kit; purchased Invitrogen
T1 sequence (P15207 651-882 limits assumed): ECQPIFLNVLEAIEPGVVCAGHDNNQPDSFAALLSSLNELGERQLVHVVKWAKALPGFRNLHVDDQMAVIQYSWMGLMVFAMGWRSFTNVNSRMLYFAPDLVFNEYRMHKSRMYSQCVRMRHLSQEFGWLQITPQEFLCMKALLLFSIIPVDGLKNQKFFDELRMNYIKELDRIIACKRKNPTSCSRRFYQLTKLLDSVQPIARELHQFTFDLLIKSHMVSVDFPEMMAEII
In words: Evaluation of androgen receptor affinity (PolarScreen Androgen Receptor Competitor Assay Kit, Red; fluorescence polarization). Conditions: 22° C. for 5 hours, relative to binding rate of 1 μM DHT, read-out: AR affinity (pEC50) (converted). The method, boiled down: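 Duplicate wells of test compound were mixed with the kit's rat AR-LBD–Fluoromone AL Red tracer complex and left 5 hours at 22 °C before polarization was read. A 4-parameter fit gave pEC50, with binding rate referenced to 1 μM dihydrotestosterone.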

Assay [2] addresses T2, human androgen receptor (Homo sapiens, UniProt P10275).
T2 construct: expressed in transfected cells; host or cells: HEK293
T2 sequence (P10275 1-920): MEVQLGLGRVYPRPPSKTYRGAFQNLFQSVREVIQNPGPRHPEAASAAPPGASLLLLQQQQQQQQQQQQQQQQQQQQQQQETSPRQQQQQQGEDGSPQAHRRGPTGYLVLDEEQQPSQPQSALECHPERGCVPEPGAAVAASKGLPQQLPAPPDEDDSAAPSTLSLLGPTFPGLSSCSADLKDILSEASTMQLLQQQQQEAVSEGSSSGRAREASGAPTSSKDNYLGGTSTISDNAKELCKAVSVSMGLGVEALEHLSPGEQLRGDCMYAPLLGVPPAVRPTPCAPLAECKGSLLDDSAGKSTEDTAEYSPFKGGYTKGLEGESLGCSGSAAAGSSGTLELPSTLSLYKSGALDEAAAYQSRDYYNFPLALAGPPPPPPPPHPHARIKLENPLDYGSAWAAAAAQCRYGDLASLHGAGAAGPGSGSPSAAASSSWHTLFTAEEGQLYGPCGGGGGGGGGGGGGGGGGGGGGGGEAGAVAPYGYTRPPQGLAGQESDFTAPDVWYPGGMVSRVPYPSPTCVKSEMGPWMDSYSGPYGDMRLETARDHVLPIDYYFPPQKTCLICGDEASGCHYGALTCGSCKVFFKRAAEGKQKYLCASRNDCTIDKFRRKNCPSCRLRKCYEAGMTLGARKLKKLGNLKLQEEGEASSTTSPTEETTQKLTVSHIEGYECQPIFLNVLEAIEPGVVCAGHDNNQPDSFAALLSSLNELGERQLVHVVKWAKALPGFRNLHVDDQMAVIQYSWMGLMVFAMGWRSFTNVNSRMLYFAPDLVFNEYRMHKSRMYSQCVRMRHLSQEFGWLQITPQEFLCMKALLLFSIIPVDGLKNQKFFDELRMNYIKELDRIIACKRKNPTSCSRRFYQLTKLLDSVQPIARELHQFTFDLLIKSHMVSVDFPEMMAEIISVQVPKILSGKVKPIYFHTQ
Briefly: Reporter assay of an androgen receptor responsive sequence (luciferase, transiently transfected HEK293 cells). The format is cell-based. Conditions: 24 hours incubation, relative to activity of 100 nM DHT, read-out: AR transcriptive activity (pEC50) (converted). The method, boiled down: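 Agonism scored as pEC50, fitted by 4-parameter curve against the response to 100 nM DHT, from dual-luciferase readout after 24 h compound treatment. Cells were HEK293 co-transfected (3 h) with human AR expression vector, androgen-responsive firefly reporter and Renilla control, in charcoal-stripped serum.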

With `COc1cc(Cl)ccc1CN(c1ccc(C#N)cc1)c1nc(C(=O)NS(C)(=O)=O)c(C)s1` [Compound 118, 2-[N-[(4-chloro-2-methoxy-phenyl)methyl]-4-cyano-anilino]-5-methyl-N-methylsulfonyl-thiazole-4-carboxamide], the EC50 was 50.1 nM in assay [1] and 398 nM in assay [2].

Turning to `Cc1sc(N(Cc2ccc(OC(F)(F)F)cc2)c2ccc(C#N)cc2)nc1C(=O)NS(=O)(=O)Cc1cccnc1` [Compound 121, 2-[4-cyano-N-[[4-(trifluoromethoxy)phenyl]methyl]anilino]-5-methyl-N-(3-pyridylmethylsulfonyl)thiazole-4-carboxamide], the figures for the EC50 in assay [1] and in assay [2] were 25.1 nM and 50.1 nM, respectively.

Take `Cc1sc(N(Cc2ccc(F)cc2)c2ccc(C#N)cc2)nc1C(=O)NS(=O)(=O)Cc1cccnc1` [Compound 122, 2-[4-cyano-N-[(4-fluorophenyl)methyl]anilino]-5-methyl-N-(3-pyridylmethylsulfonyl)thiazole-4-carboxamide]: the results for the EC50 in assay [1] and in assay [2] were 25.1 nM and 20 nM, respectively.

With `Cc1sc(N(Cc2ccc3c(c2)OCCO3)c2ccc(C#N)cc2)nc1C(=O)NS(C)(=O)=O` [Compound 123, 2-[4-cyano-N-(2,3-dihydro-1,4-benzodioxin-6-ylmethyl)anilino]-5-methyl-N-methylsulfonyl-thiazole-4-carboxamide], the EC50 is 50.1 nM in assay [1] and 100 nM in assay [2].

Turning to `Cc1sc(N(Cc2c(F)cccc2F)c2ccc(C#N)cc2)nc1C(=O)NS(C)(=O)=O` [Compound 124, 2-[4-cyano-N-[(2,6-difluorophenyl)methyl]anilino]-5-methyl-N-methylsulfonyl-thiazole-4-carboxamide], the EC50 in assay [1] was 63.1 nM; in assay [2], 631 nM.

In the case of `Cc1sc(N(Cc2cc(F)c(F)c(F)c2)c2ccc(C#N)cc2)nc1C(=O)NS(C)(=O)=O` [Compound 125, 2-[4-cyano-N-[(3,4,5-trifluorophenyl)methyl]anilino]-5-methyl-N-methylsulfonyl-thiazole-4-carboxamide], the EC50 in assay [1] is 31.6 nM; in assay [2], 126 nM.

Regarding `Cc1sc(N(Cc2cc(Cl)ccc2F)c2ccc(C#N)cc2)nc1C(=O)NS(C)(=O)=O` [Compound 126, 2-[N-[(5-chloro-2-fluoro-phenyl)methyl]-4-cyano-anilino]-5-methyl-N-methylsulfonyl-thiazole-4-carboxamide], the results for the EC50 in assay [1] and in assay [2] were 63.1 nM and 794 nM, respectively.

Turning to `Cc1sc(N(Cc2ccc3c(c2)OCO3)c2ccc(C#N)cc2)nc1C(=O)NS(C)(=O)=O` [Compound 128, 2-[N-(1,3-benzodioxol-5-ylmethyl)-4-cyano-anilino]-5-methyl-N-methylsulfonyl-thiazole-4-carboxamide], the EC50 in assay [1] is 39.8 nM; in assay [2] it was 100 nM.

With `Cc1sc(N(Cc2ccc(Br)cc2)c2ccc(C#N)cc2)nc1C(=O)NS(C)(=O)=O` [Compound 129, 2-[N-[(4-bromophenyl)methyl]-4-cyano-anilino]-5-methyl-N-methylsulfonyl-thiazole-4-carboxamide], the EC50 in assay [1] was 39.8 nM; in assay [2] it was 20 nM.

For the compound `Cc1sc(N(CCc2cccs2)c2ccc(C#N)cc2)nc1C(=O)NS(C)(=O)=O` [Compound 131, 2-[4-cyano-N-[2-(2-thienyl)ethyl]anilino]-5-methyl-N-methylsulfonyl-thiazole-4-carboxamide], the EC50 was 251 nM in assay [1] and 1000 nM in assay [2].

In the case of `Cc1sc(N(CCc2ccsc2)c2ccc(C#N)cc2)nc1C(=O)NS(C)(=O)=O` [Compound 132, 2-[4-cyano-N-[2-(3-thienyl)ethyl]anilino]-5-methyl-N-methylsulfonyl-thiazole-4-carboxamide], the EC50 is 316 nM in assay [1] and 1580 nM in assay [2].

`Cc1sc(N(CCc2ccc(Cl)cc2)c2ccc(C#N)cc2)nc1C(=O)NS(C)(=O)=O` [Compound 133, 2-[N-[2-(4-chlorophenyl)ethyl]-4-cyano-anilino]-5-methyl-N-methylsulfonyl-thiazole-4-carboxamide]: the EC50 in assay [1] was 158 nM; in assay [2], 1580 nM.
